The text below walks through data of patent US7655808B2, “Leptomycin compounds” (priority 2004, dated 2010).

The subject of one data set is MCF-7. The data set is described as follows: Inhibition of proliferation / cytotoxicity, MCF-7. The class given is cell-based. Particulars: MCF7; MCF-7 human breast cancer cell line; read-out: Tumor Cell Line (IC50, nM) MCF-7. On the procedure:
(§1) The biological activity of compounds of this invention was evaluated by measuring their inhibitory effect on the proliferation of various tumor cell lines. MCF-7, A549, and SKOV-3 are human breast, lung, and ovary cancer cell lines, respectively. NCI/ADR is a multi-drug resistant breast cancer cell line. CCRF-CEM and CCRF-CEM/PTX are human leukemia cell lines, the latter being a paclitaxel-resistant subline. LNCaP is a prostate cancer cell line.

The subject of a further data set is NCI/ADR. The data set is described as follows: Inhibition of proliferation / cytotoxicity, NCI/ADR. Format: cell-based. Particulars: Homo sapiens, NCI/ADR-RES; NCI/ADR multi-drug resistant breast cancer cell line; read-out: Tumor Cell Line (IC50, nM) NCI/ADR. The method, then: as §1
Another data set has as its system A549. The data set is described as follows: Inhibition of proliferation / cytotoxicity, A549. Format: cell-based. As to conditions: A549 human lung cancer cell line; read-out: Tumor Cell Line (IC50, nM) A549. On the procedure: as §1
The test system of the next data set is SKOV-3. The data set is described as follows: Inhibition of proliferation / cytotoxicity, SKOV-3. The class given is cell-based. Particulars: SK-OV-3; SKOV-3 human ovary cancer cell line; read-out: Tumor Cell Line (IC50, nM) SKOV-3. On the procedure:
as §1

In another data set the test system is CCRF-CEM. The data set is described as follows: Inhibition of proliferation / cytotoxicity, CCRF-CEM. As to conditions: CCRF-CEM human leukemia cell line; read-out: Tumor Cell Line (IC50, nM) CCRF-CEM. Format: cell-based. The method, then:
as §1

The next data set relates to CCRF-CEM/PTX. The data set is described as follows: Inhibition of proliferation / cytotoxicity, CCRF-CEM/PTX. Format: cell-based. As to conditions: CCRF-CEM/PTX paclitaxel-resistant human leukemia subline; read-out: Tumor Cell Line (IC50, nM) CCRF-CEM/PTX. On the procedure:
as §1

Another data set has as its system LNCaP. The data set is described as follows: Inhibition of proliferation / cytotoxicity, LNCaP. The class given is cell-based. Particulars: Homo sapiens; LNCaP prostate cancer cell line; read-out: Tumor Cell Line (IC50, nM) LNCaP. The method, then:
as §1

Another data set deals with K562 cells. The data set is described as follows: Cytotoxicity against Bcr-Abl positive K562 cells. The class given is cell-based. Particulars: Homo sapiens; K562, Bcr-Abl positive CML cell line. The text has this:
Data was also obtained for the cytotoxicity of several compounds of this invention against K562, a Bcr-Abl positive CML cell line, as shown in Table 3 with comparative data for LMB included.

Data set [1] in a line: Mouse maximum tolerated dose, single dose intravenous. Format: in vivo. As to conditions: mice, single dose intravenous administration. The method, then: The maximum tolerated dose (MTD) in mice, upon single dose intravenous administration was determined for a representative selection of compounds. The data are summarized in Table 4, with comparative data for LMB included.

The subject of the next data set is MB 49 cells. The data set is described as follows: Cytotoxicity against MB 49 murine bladder cancer cells. As to conditions: Mus musculus, MB49. The class given is cell-based. The text has this:
Table 5 presents data on the cytotoxicity of LMB and selected compounds of this invention against MB 49 cells, a line of murine bladder cancer cells.

In another data set the test system is UMUC-3. The data set is described as follows: Cytotoxicity against human bladder cancer cells UMUC-3. The class given is cell-based. As to conditions: UMUC3; UMUC-3 human bladder cancer cells. On the procedure: (§2) Additionally, the cytotoxicity of LMB was determined against two lines of human bladder cancer cells (UMUC-3 and T24).
In a further data set the test system is T24. The data set is described as follows: Cytotoxicity against human bladder cancer cells T24. The class given is cell-based. As to conditions: T-24. On the procedure: as §2
The test system of another data set is mammalian cells. Particulars: Hamamoto et al., J. Antibiotics 1983; cited from earlier work.
For data set [2] the following is noted: phase 1 trial halted in 1994; cited from earlier work.

With `CCC(=C/[C@H](C)C/C=C/C(C)=C/[C@@H](C)C(=O)[C@@H](C)[C@H](O)[C@@H](C)C/C(C)=C/C(=O)O)/C=C/[C@@H]1OC(=O)C=C[C@@H]1C` [LMB, Leptomycin B, reference compound], the IC50 with MCF-7 was 0.29 nM; in the data set with NCI/ADR, 1 nM; in the data set on A549, 0.3 nM; with SKOV-3, 1.5 nM; in the data set on CCRF-CEM, 0.65 nM; with CCRF-CEM/PTX it was 0.41 nM. For the same molecule, the IC50 in the data set with LNCaP stood at 0.3 nM; in the data set with K562 cells, 0.6 nM; in the data set on MB 49 cells it was 1.8 nM. Besides, the “Mouse MTD” value in data set [1] came out at 2.5 mg/kg. In addition, the concentration giving a half-maximal response (EC50) was determined as 0.33 nM with UMUC-3 and 1.2 nM in the data set on T24. The “cytotoxicity towards mammalian cells” value in the data set on mammalian cells is recorded as “remarkable cytotoxicity”. For the same molecule, the “toxicity in phase 1 trial” value in data set [2] is “extreme toxicity”.

One may read the EC50 as the concentration giving half of the maximal effect.
